# Where a SMILES comes first, the peptide text is derived from it. [ ]: non-standard residue; d: D form. dPhe(4-Cl) = N[C@H](Cc1ccc(Cl)cc1)C(=O)O; d2Nal = N[C@H](Cc1ccc2ccccc2c1)C(=O)O; dCit = NC(=O)NCCC[C@@H](N)C(=O)O; d3Pal = N[C@H](Cc1cccnc1)C(=O)O
# Key:
# [1] = Stability of aqueous solution / conventional sterilization; assay type: physicochemical
# Method: It should be possible to administer the active substance subcutaneously in a dose of 0.1 to 20 mg. Aqueous solutions of the decapeptide are unstable, and, therefore, autoclaving in the container used to distribute it is not possible. […] To obtain an injectable solution it was therefore necessary to develop a lyophilizate.
# [2] = Dissolution in 30% volume/volume acetic acid; assay type: physicochemical
# Method: (§1) The solution is then diluted to a final concentration of 3% peptide, e.g., cetrorelix, with water for injection purposes and mannitol is added. Although it is stated in the literature that the terminal amide group hydrolyzes easily in acid medium, this was not found in the case of cetrorelix. Solutions prepared according to this method caused no difficulties during filtration. The correct amounts of active substance were always found.
# [3] = Hydrolysis of terminal amide group in acid medium; assay type: physicochemical; conditions: acid medium (acetic acid solution)
# Method: as §1
# [4] = tested on: endogenous hormone production (LH-FSH, oestradiol); test: Suppression of endogenous hormone production in in-vitro fertilization treatment; assay type: in vivo, patients; conditions: treatment over 5 days; female sterility / in-vitro fertilization
# Description: The premature LH peaks cannot arise and the frequency of hyperstimulation syndrome should be reduced. In addition, less HMG is used in the 2nd phase of therapy, the ovulation triggering phase. This gives this in-vitro fertilization treatment a not inconsiderable cost advantage. In-vitro fertilization is, for example, used when a tube anomaly is present. To perform this treatment it is necessary to precisely monitor the cycle and to establish the time of ovulation as precisely as possible. This has hitherto only been achieved to a limited extent since preovulatory LH increase often occurred too early due to simulation with HMG/HCG, or was not maintained for a sufficiently long period. Avoidance of this premature increase is, however, of critical importance for the success of the treatment in order to precisely determine the time of fertilization. This reduces the physical and mental burden on the patient and makes optimum use of hospital logistics. To achieve this objective with great reliability it is necessary to suppress endogenous hormone production (LH-FSH, oestradiol) as completely as possible in order to simultaneously stimulate follicle maturation through administration of exogenous gonadotrophins (HMG/HCG) and to monitor the hormone status at any time. […]
compound,measurement,setting,value
CC(=O)N[C@H](Cc1ccc2ccccc2c1)C(=O)N[C@H](Cc1ccc(Cl)cc1)C(=O)N[C@H](Cc1cccnc1)C(=O)N[C@@H](CO)C(=O)N[C@@H](Cc1ccc(O)cc1)C(=O)N[C@H](CCCNC(N)=O)C(=O)N[C@@H](CC(C)C)C(=O)N[C@@H](CCCNC(=N)N)C(=O)N1CCC[C@H]1C(=O)N[C@H](C)C(N)=O [Cetrorelix] (Ac-[d2Nal][dPhe(4-Cl)][d3Pal]SY[dCit]LRP[dA]-NH2),Stability of aqueous solutions,"[1]; aqueous solution, autoclaving in the container not possible",unstable
same,Behaviour during conventional sterilization,"[1]; conventional sterilization, prescribed conditions",tends to decompose
same,Solubility in acetic acid,[2],easily dissolved
same,Hydrolysis of terminal amide group,[3],not found
same,Suppression achieved,[4],total suppression

# — US7605121B2, “Oligopeptide lyophilisate, their preparation and use” (AEterna Zentaris GmbH, priority 1993, dated 2009)
